Reference: patent EP4656630A1, “NOVEL COMPOUND AS LYSYL-TRNA SYNTHETASE 1 INHIBITOR, AND USE THEREOF” (Zymedi Co., Ltd., priority 2023, dated 2024)

Key:
[1] = S9 metabolic stability, human; format: in vitro ADME
Description: (§1) Among these, secondary MS measurements were conducted for Compound 25 (C0047), Compound 43 (C0216), and C0001 using the S9 method. This test measured the remaining % at 30, 45, and 60 minutes for four species: mouse, rat, dog, and human.

Raw264.7 cells = assay: KARS1-induced trans-migration assay; format: cell-based, mouse; details: Mus musculus, RAW264.7
Procedure, shortened: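 Mouse Raw264.7 macrophage trans-migration induced by externally added KARS1 protein in place of laminin. Candidates with high inhibition at 1 µM were then tested at 0.1~4 µM.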

[2] = Microsomal metabolic stability, rat; format: in vitro ADME
Description: (§2) Metabolic stability (MS) evaluation was conducted for the selected compounds by measuring in vitro stability in two species, rat and human, according to the microsomal stability measurement method. As a result, it was identified that MS varied depending on the transformation of parts A, B, and C.

KARS1 and 37LR = molecular target: T1, KARS1 and 37LR (Homo sapiens, UniProt Q15046); assay: Cell-free ELISA of KARS1 and 37LR (laminin receptor) binding; details: 10 µM compound, 1 hour, plate coated with KARS1 (1-207aa), LRF
T1 construct: KARS1 (1-207aa)
Description: Next, based on the mechanism of action, a cell-free ELISA analysis was conducted to select compounds with high inhibitory activity on the binding of KARS1 and LR (laminin receptor).

Raw 264.7 cells = assay: LN (Laminin 421)-induced immune cell migration, Transwell; format: cell-based; details: Mus musculus, RAW264.7
Procedure, shortened: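 Raw 264.7 cells (1 x 10^5/well) seeded in upper chamber of gelatin-coated 5 µm Transwell with compound at 3 µM. Serum-free DMEM with Laminin 421 (1 µg/ml) in lower chamber. After 24 h, migrated cells fixed, hematoxylin-stained and counted by microscopy; expressed as % inhibition versus control.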

[3] = S9 metabolic stability, mouse; format: in vitro ADME
Description: as §1

[4] = S9 metabolic stability, dog; format: in vitro ADME
Description: as §1

[5] = S9 metabolic stability, rat; format: in vitro ADME
Description: as §1

Organ distribution = format: in vivo; design: Organ distribution Plasma (ng/ml): concentration or dose not given beside the values
[6] = Microsomal metabolic stability, human; format: in vitro ADME
Description: as §2

[7] = Rat pharmacokinetics (po and iv) and bioavailability; format: in vivo; details: for Cmax / Tmax / half-life / AUC: in vivo
Description: For this purpose, formulations suitable for peroral administration (po) and intravenous injection (iv) for each compound were first selected to ensure stable PK progression.
The formulation was selected under the condition of maintaining a clear solution for more than 1 hour at 10 and 30 mpk doses based on po, and the iv formulation was modified when iv use was not possible based on po (Table 8).
To confirm the oral administration potential of the selected compounds, 10 mpk rat po PK was conducted. The PK profile and key indicators after administering 10 mpk to five compounds, C0001, 25, 41, 42, and 43, are shown in Figure 3 and Table 9.
Based on the previous 10 mpk po rat PK results, 30 mpk po rat PK was conducted for four compounds, C0001, 25, 41, and 43, to confirm changes in the blood PK profile of the substances with increasing doses.
For these compounds, 2 mpk iv rat PK was conducted to calculate bioavailability (BA) (Table 11).

T1 sequence (Q15046 1-207): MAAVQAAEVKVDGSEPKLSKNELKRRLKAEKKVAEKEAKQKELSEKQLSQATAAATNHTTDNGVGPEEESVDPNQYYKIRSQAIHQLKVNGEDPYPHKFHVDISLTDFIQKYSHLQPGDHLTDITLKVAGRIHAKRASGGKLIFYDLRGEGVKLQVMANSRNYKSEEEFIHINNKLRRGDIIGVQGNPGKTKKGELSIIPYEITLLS

In the case of `COc1ccc(CCN(Cc2ccc(C#CC(=O)O)cc2)c2nc3cccc(F)c3s2)cc1` [Compound C0001, reference compound], the “Metabolic stability (% remaining at each time) Human (min) 30” value ([1]; 30 min) is reported as 59.1%, the “Metabolic stability (% remaining at each time) Human (min) 45” value ([1]; 45 min) is reported as 50.2% and the “Metabolic stability (% remaining at each time) Human (min) 60” value ([1]; 60 min) is reported as 46.2%. For the same compound, the inhibition at 1 µM (Raw264.7 cells; 1 µM compound, read-out: KARS1-induced Raw264.7 cell migration (% inhibition, 1uM)) was 68.7%, the EC50 (Raw264.7 cells; KARS1-induced cell migration, 0.1~4 µM) was 0.75 µM and the “Metabolic stability (% remaining at 30 min) Rat” value [2] was 50%. It also gave an inhibition at 10 µM (KARS1 and 37LR) of 64.5%, an inhibition at 3 µM (Raw 264.7 cells; 3 µM compound, LN (Laminin 421 1 µg/ml), 24 hours, % inhibition compared to control group, read-out: Migration inhibitor % (3uM)) of 41.9% and an EC50 (Raw 264.7 cells; LN-induced cell migration, read-out: EC50 for cell migration inhibition induced by LN) of 7.93 µM. For the same compound, the “Metabolic stability (% remaining at each time) Mouse (min) 30” value ([3]; 30 min) was 67.1%, the “Metabolic stability (% remaining at each time) Mouse (min) 45” value ([3]; 45 min) was 62.3% and the “Metabolic stability (% remaining at each time) Mouse (min) 60” value ([3]; 60 min) was 49.6%. The “Metabolic stability (% remaining at each time) Dog (min) 30” value ([4]; 30 min) was 80.7%, the “Metabolic stability (% remaining at each time) Dog (min) 45” value ([4]; 45 min) was 85.6% and the “Metabolic stability (% remaining at each time) Dog (min) 60” value ([4]; 60 min) was 75.9%. The “Metabolic stability (% remaining at each time) Rat (min) 30” value ([5]; 30 min) was 79.6%, the “Metabolic stability (% remaining at each time) Rat (min) 45” value ([5]; 45 min) was 76.6% and the “Metabolic stability (% remaining at each time) Rat (min) 60” value ([5]; 60 min) was 83.1%. For the same compound, the “Organ distribution (ratio per plasma) Brain” value (Organ distribution; 0.5 h) was 0.02, the “Organ distribution (ratio per plasma) Brain” value (Organ distribution; 6.0 h) was 0.01 and the “Organ distribution (ratio per plasma) Heart” value (Organ distribution; 0.5 h) was 0.06. For the same compound, the “Organ distribution (ratio per plasma) Heart” value (Organ distribution; 6.0 h) was 0.03, the “Organ distribution (ratio per plasma) Kidney” value (Organ distribution; 0.5 h) was 0.01 / 0.01 and the “Organ distribution (ratio per plasma) Kidney” value (Organ distribution; 6.0 h) was 0.01 / 0.01. The “Organ distribution (ratio per plasma) Liver” value (Organ distribution; 0.5 h) was 19.1 / 19.1, the “Organ distribution (ratio per plasma) Liver” value (Organ distribution; 6.0 h) was 19.1 / 19.1 and the “Organ distribution (ratio per plasma) Lung” value (Organ distribution; 0.5 h) was 0.08. For the same compound, the “Organ distribution (ratio per plasma) Lung” value (Organ distribution; 6.0 h) was 0.06, the “Organ distribution Plasma (ng/ml)” value (Organ distribution; 0.5 h) was 3,145 ng/ml and the “Organ distribution Plasma (ng/ml)” value (Organ distribution; 6.0 h) was 1,769 ng/ml. For the same compound, the “Metabolic stability (% remaining at 30 min) Human” value [6] was 56%, the Cmax ([7]; 10 mg/kg, po, 10 mpk) was 2020 ng/mL and the Tmax ([7]; 10 mg/kg, po, 10 mpk) was 0.5 h. For the same compound, the half-life ([7]; 10 mg/kg, po, 10 mpk) was 1.83 h, the Cmax ([7]; 30 mg/kg, po, 30 mpk) was 4720 ng/mL and the Tmax ([7]; 30 mg/kg, po, 30 mpk) was 2 h. It also gave a half-life ([7]; 30 mg/kg, po, 30 mpk) of 2.67 h, an AUC ([7]; iv, 2 mg/kg, 2 mpk) of 3440 ng·h/mL and an AUC ([7]; po, 10 mg/kg, 10 mpk) of over 5000 ng·h/mL. For the same compound, the AUC ([7]; po, 10 mg/kg, 10 mpk (Table 11)) was 5830 ng·h/mL, the AUC ([7]; po, 30 mg/kg, 30 mpk) was 25600 ng·h/mL and the AUC ([7]; po, 30 mg/kg, 30 mpk (Table 11)) was 25600 ng·h/mL. The “BA (%)” value ([7]; po, 10 mpk against iv 2 mpk) was 33.9% and the “BA (%)” value ([7]; po, 30 mpk against iv 2 mpk) was 49.6%.
